Results as given in US6683090B1 (priority 1999, dated 2004).
pKd: −log10 of the molar value.

Target: α7 nAChR subtype (Rattus norvegicus, UniProt Q05941)
Format: binding
Settings: read-out: KD of radioligand

Chain of α7 nAChR subtype (Q05941 23-502 limits assumed): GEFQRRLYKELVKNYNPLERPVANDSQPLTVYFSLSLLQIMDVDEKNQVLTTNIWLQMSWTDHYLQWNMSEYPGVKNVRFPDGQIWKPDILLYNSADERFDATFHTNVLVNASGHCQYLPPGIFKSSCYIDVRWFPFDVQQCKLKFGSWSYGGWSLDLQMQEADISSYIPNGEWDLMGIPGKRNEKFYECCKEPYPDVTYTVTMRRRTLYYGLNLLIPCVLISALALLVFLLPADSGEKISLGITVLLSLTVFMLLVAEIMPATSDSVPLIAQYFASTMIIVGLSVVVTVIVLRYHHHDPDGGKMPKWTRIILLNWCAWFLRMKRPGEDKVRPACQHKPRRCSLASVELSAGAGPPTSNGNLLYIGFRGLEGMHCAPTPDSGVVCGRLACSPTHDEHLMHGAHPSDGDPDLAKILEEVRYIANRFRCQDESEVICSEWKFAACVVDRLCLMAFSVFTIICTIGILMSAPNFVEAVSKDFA

125I-α-Bungarotoxin [^125I-α-BTX]
pKd: 8.78
